Patent publication US20190336496A1, “SELECTIVE BCL-2 INHIBITORS IN COMBINATION WITH AN ANTI-PD-1 OR AN ANTI-PD-L1 ANTIBODY FOR THE TREATMENT OF CANCERS” (AbbVie Inc., priority 2018, published 2019)

What was measured:
[1] = test system: CD4 T-cells co-cultured with MoDCs; assay: Mixed lymphocyte reaction (MLR) assay; assay type: cell-based, human; conditions: for CD3+ T cell numbers / production of IFNγ (secreted) / proportion of CD3+ T-cells that produce IFNγ: MLR, BCL-2 inhibitors at 1 μM
Method: Mixed Lymphocyte Reaction (MLR) assay was used to examine venetoclax effect on T-cell function in response to immune stimulation. Monocytic-derived dendritic cells (MoDCs) were generated from fresh human blood. PBMCs were isolated using a Ficoll gradient. The PBMCs were allowed to adhere for 2 hours. After 2 hours, cells in suspension were removed. Fresh AIM V™ medium (ThermoFisher cat. #12055091) supplemented with granulocyte-macrophage colony-stimulating factor (GM-CSF, 80 ng/mL) and IL-4 (50 ng/mL) was added to the culture. After 5 days, the MoDCs were stimulated with IL-1α and TNF-α (0.2 ng/mL each) for 48 hours to increase major histocompatibility complex class II molecules (MHCII) expression. These activated MoDCs were then co-cultured with CD4 T-cells (Biospecialty Corp.) at a ratio of 10:1 (T-cells:MoDCs) in a mixed lymphocyte reaction (MLR). The cells were treated with control IgG (Isotype) or anti-PD-1 antibody (nivolumab or ABBV-181 along with either dimethyl sulfoxide (DMSO) or BCL-2 inhibitors venetoclax (Compound (I)) or Compounds (II) or (III). Antibodies were added at 10 μg/mL and the compound concentrations of venetoclax were as indicated in FIG. 11. The MLR was cultured for 5 days, after which the cells were analyzed by flow cytometry using an LSRFortessa™ X-20 instrument (BD Biosciences) to determine cell number and functional cytokine (IFNγ) responses.

[2] = test system: EMT6 tumors; assay: EMT6 mouse mammary carcinoma syngeneic model; assay type: in vivo; conditions: for complete responses (CR): EMT6, groups of 10 mice
Method: All experiments were conducted in compliance with the National Institutes of Health Guide for Care and Use of Laboratory Animals guidelines in a facility accredited by the Association for the Assessment and Accreditation of Laboratory Animal Care (AAALAC). BALB/c, C57BL/6, CB6F1 (C57BL/6 bred with BALB/c) and SCID mice were obtained from Charles River (Wilmington, Mass.). SCID mice have severe combined immune deficiency (SCID) and are characterized by an absence of functional T- and B-cells.
EMT6, mouse mammary carcinoma and CT26, mouse colon carcinoma, cell lines were obtained from ATCC (Manassas, Va.). MC38, mouse colon carcinoma cell line was obtained from National Cancer Institute (NCI).
Compound (I),venetoclax, was formulated in 10% ethanol+30% PEG 400+60% Phosal® 50PG. Venetoclax was administered orally once a day for 14 days at 50 mg/kg/day.
1×10^5 CT26, EMT6 or MC38 cells were subcutaneously injected with Matrigel into the flanks of BALB/c, CB6F1 or C57BL/6 mice, respectively. Seven days later, mice were randomized to treatment groups of vehicle, venetoclax, anti-PD-1/PD-L1 or the combination of venetoclax and anti-PD-1/PD-L1. Tumor volume was determined via measurements of the length (L) and width (W) of the tumor with electronic calipers and the volume was calculated according to the following equation: V=L×W2/2 using Study Director Version 2.1.11 (Studylog Systems Inc., South San Francisco). Complete response (CR) was defined as reduction in tumor volume to ≤25 mm^3 over at least 3 successive measurements.

Compound	CD3+ T cell numbers [1]	production of IFNγ (secreted) [1]	proportion of CD3+ T-cells that produce IFNγ [1]	further results
Cn1ccc2cc(N(C(=O)c3cc(-c4cc5c(cc4C(=O)N4Cc6ccccc6C[C@H]4CN4CCOCC4)OCO5)n4c3CCCC4)c3ccc(O)cc3)ccc21 [Compound (II)]	declined comparably	not antagonized	increase	–
O=C(c1cc(-c2cc3c(cc2C(=O)N2Cc4ccccc4C[C@H]2CN2CCOCC2)OCO3)n2c1CCCC2)N(c1ccccc1)c1ccc(O)cc1 [Compound (III)]	declined comparably	not antagonized	increase	–
anti hu PD-L1 YW243.55.S70 [mu IgG2 a/k]: mouse anti-PD-L1 antibody, heavy chain SEQ ID NO: 5, light chain SEQ ID NO: 6	–	–	–	complete responses (CR) [2]: 3; complete responses (CR) ([2]; listed as anti-PD-L1 antibody): 3/10; tumor growth inhibition (TGI) ([2]; EMT6 in CB6F1 mice, venetoclax 50 mg/kg/day orally 14 days, antibody 10 mg/kg IP every 4 days, 3 times, day 25): 89%
nivolumab: anti-PD-1 antibody, heavy chain SEQ ID NO: 9, light chain SEQ ID NO: 10	–	–	–	proportion of CD4+ T-cells that produce IFNγ ([1]; MLR 5 days, with isotype control or anti-PD-1 antibody): increased; number of CD4+ T-cells ([1]; MLR cultured 5 days, antibodies at 10 μg/mL): increased
